System: iNKT cells
Test: iNKT cell activation in mice after injection of aGC and/or rapamycin, soluble or in nanocarriers (flow cytometry of liver lymphocytes)
Assay type: in vivo
Settings: about 4 h after injection
Description: Mice were designated to groups that received PBS alone, soluble aGC, NPaGC, sol aGC+solRAPA, sol aGC+NP RAPA, NPaGC+solRAPA or NPaGC+NP RAPA. Mice were injected at 9 am and at 9.30 AM received BrefeldinA i.v. to prevent release of intracellular cytokines produced. At 1 pm, mice were sacrificed and the liver was perfused with PBS and processed to obtain a single cell suspension enriched for lymphocytes. Cells were stained with cell surface markers for iNKT cells (agc-loaded CD1d tetramers) and T cells receptor (TCRb) and activation marker CD69. The cell suspension was then permeabilized and intracellular cytokine staining was performed for Th1 cytokine IFN-γ, and Th2 cytokines IL-4 and the anti-inflammatory cytokine IL-10. Cells were acquired on a FacsCanto flow cytometer and analyzed on by FlowJo.

For `CCCCCCCCCCCCCCCCCCCCCCCCCC(=O)N[C@@H](CO[C@H]1O[C@H](CO)[C@H](O)[C@H](O)[C@H]1O)[C@H](O)[C@H](O)CCCCCCCCCCCCCC` [aGC, α-Galactosyl Ceramide (KRN7000)], the “iNKT cell activation as seen by cytokine production and upregulation of CD69 on their surface” value was “activated”.
